# Experimental data taken from US20220033407A1, “N-(pyridin-2-ylsulfonyl)cyclopropanecarboxamide Derivatives and their Use in the Treatment of Disease” (NOVARTIS AG, priority 2018, published 2022).
# Target: T1, delF508-CFTR-HRP (Homo sapiens, UniProt P13569, DEL508-508)
# T1 construct: expressed in transfected cells
# Experiment: Measurement of delF508-CFTR-HRP surface expression in CFBE41o- cells (HRP luminescence);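 as to DelF508-CFTR-HRP Amax %: percent efficacy relative to a reference CFTR corrector compound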
# Type: cell-based
# Settings: for Emax: CFBE41o-, read-out: DelF508-CFTR-HRP Amax %; for EC50: mean of at least two replicates
# Source text: Measurement of delF508-CFTR-HRP Surface Expression in CFBE41o-Cells
# This assay quantifies the cell surface expressions of the mutant CFTR channel using an extracellular HRP tag.
# A cellular assay was developed to measure surface expression of horseradish peroxidase (HRP) tagged delF508-CFTR in the human bronchial epithelial immortalized CFBE41o-cell line (Phuan, P. W., et al, (2014) Molecular Pharmacology 86:42-51). Specifically, the HRP sequence was inserted into the fourth extracellular loop of delF508-CFTR and stably expressed in CFBE41o-cells. Cells were seeded in 384 well plate at a density of 5000 cells/well and incubated at 37° C. for 12 to 24 hours in medium (Gibco MEM #11095, 10% FBS, 10 mM HEPES, […], 200 μg/mL G418, 3 μg/mL Puromycin). The delF508-CFTR-HRP expression was induced with 500 ng/mL doxycycline (Sigma D-9891, dissolved in H2O and sterile filtered) in medium and the cells were incubated at 37° C. for 48 h. Old medium was removed and fresh medium was added containing 500 ng/mL doxycycline and unknown test compound at required test concentration in DMSO, not exceeding 0.5% final DMSO concentration. The highest concentration tested was 10 μM with a 10-point concentration response curve using a 3-fold dilution. After addition of compounds, the cells were incubated for 24 h at 37° C. On the final day, cells were washed four times in PBS containing 1 mM MgCl2 and 0.1 mM CaCl2. HRP-Substrate (SuperSignal ELISA Pico, Fisher #37069) 20 μl/well was added and the luminescence signal was determined (Viewlux, Perkin Elmer). Light was emitted upon addition of exogenous HRP-Substrate only when delF508-CFTR-HRP reached the cell surface and the HRP tag was accessible to the HRP-Substrate (note: HRP-Substrate cannot cross the lipid bilayer to reach delF508-CFTR-HRP misfolded within the cell).
# The median activity for the lowest concentration of the compounds on each assay plate was calculated and this value was used to normalize the signal for each well on the respective plate. Three replicates at each concentrations for every compound were run to determine one EC50. The median value was determined and used to calculate compound activities as described below. Effective half maximal values (EC50) were calculated for each compound by performing logistic regression on measured dose-response data points using the equation: […]
# where “Y” is the observed activity, “Bottom” is the lowest observed value, “Top” is the highest observed value, and the “Hill coefficient” gives the largest absolute value of the slope. The curve fitting is carried out by a curve fitting program implemented at GNF using Matlab (Mathworks). The dose response curves also were used to calculate Fold Change (FC) using the equation: […]
# Compound efficacy relative to the reference compound 3-(6-(1-(2,2-difluorobenzo[d][1,3]dioxol-5-yl)cyclopropane-1-carboxamido)-3-methylpyridin-2-yl)benzoic acid was determined using the following formula: […]
# T1 sequence (P13569 with tags, fused parts or gaps DEL508-508): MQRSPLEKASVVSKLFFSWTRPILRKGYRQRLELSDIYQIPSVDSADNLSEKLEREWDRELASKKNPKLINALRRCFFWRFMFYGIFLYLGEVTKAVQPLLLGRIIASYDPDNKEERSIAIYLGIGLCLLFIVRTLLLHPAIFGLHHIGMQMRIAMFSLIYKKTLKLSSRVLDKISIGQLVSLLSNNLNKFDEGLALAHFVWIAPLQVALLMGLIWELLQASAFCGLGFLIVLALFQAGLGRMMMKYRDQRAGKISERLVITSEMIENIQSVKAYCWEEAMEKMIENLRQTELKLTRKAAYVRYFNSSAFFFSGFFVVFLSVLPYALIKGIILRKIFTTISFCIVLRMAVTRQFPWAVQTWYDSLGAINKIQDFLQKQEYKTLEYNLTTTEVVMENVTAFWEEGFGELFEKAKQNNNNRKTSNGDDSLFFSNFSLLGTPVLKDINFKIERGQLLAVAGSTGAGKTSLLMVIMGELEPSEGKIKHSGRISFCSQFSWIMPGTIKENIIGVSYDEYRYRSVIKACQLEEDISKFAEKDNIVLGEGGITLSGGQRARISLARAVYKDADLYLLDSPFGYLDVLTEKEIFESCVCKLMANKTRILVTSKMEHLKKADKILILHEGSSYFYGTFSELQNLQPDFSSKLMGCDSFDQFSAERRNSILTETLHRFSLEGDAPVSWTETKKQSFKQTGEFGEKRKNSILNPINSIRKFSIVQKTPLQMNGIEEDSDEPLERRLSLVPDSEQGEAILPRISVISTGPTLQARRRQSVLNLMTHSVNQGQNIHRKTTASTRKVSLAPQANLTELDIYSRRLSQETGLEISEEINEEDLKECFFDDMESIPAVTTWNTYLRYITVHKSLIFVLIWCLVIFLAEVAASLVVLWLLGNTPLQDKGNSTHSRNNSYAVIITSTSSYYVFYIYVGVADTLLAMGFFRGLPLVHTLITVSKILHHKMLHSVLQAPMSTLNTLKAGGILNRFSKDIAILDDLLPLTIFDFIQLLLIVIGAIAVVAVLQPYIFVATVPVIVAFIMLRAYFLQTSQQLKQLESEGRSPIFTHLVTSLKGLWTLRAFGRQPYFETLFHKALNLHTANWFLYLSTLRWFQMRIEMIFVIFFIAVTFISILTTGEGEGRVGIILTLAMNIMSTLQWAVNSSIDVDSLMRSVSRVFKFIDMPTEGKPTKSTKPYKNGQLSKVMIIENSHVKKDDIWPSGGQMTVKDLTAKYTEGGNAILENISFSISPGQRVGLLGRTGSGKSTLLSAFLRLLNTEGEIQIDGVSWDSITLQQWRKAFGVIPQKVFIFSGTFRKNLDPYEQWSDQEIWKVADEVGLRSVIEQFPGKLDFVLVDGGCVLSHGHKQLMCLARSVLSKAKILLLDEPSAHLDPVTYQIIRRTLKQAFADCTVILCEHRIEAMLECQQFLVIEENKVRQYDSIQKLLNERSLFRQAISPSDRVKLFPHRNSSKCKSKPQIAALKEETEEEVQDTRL
SMILES,Emax,EC50
"Cc1ccc(C2CC(F)(F)C2)c(OC2(C(=O)NS(=O)(=O)c3cccc(N4CC(C)(O)C4)n3)CC2)c1 [Example 4-3, 1-(2-(3,3-Difluorocyclobutyl)-5-methylphenoxy)-N-((6-(3-hydroxy-3-methylazetidin-1-yl)pyridin-2-yl)sulfonyl)cyclopropanecarboxamide]",158%,4.52 µM
"Cc1ccc(C)c(OC2(C(=O)NS(=O)(=O)c3cccc(NC[C@@H](C)O)n3)CCCC2)c1 [Example 4-4, (R)-1-(2,5-dimethylphenoxy)-N-((6-((2-hydroxypropyl)amino)pyridin-2-yl)sulfonyl)cyclopentane-1-carboxamide]",84%,4.77 µM
"C=C(c1ccc(F)cc1OC1(C(=O)NS(=O)(=O)c2cccc(N3CCN(c4ccccc4)CC3)n2)CC1)C(F)(F)F [Example 4-18, 1-(5-Fluoro-2-(3,3,3-trifluoroprop-1-en-2-yl)phenoxy)-N-((6-(4-phenylpiperazin-1-yl)pyridin-2-yl)sulfonyl)cyclopropane-1-carboxamide]",160%,3.39 µM
"Cc1ccc(C2CC3(CCC3)C2)c(OC2(C(=O)NS(=O)(=O)c3cccc(N4CC[C@H](O)C4)n3)CC2)c1 [Example 4-19, (S)-N-((6-(3-Hydroxypyrrolidin-1-yl)pyridin-2-yl)sulfonyl)-1-(5-methyl-2-(spiro[3.3]heptan-2-yl)phenoxy)cyclopropane-1-carboxamide]",626%,1.09 µM
"CC(C)COc1cccc(-c2ccc(Cl)cc2OC2(C(=O)NS(=O)(=O)c3cccc(N4CCC(C)(C#N)CC4)n3)CC2)c1 [Example 5-3, 1-((4-Chloro-3′-isobutoxy-[1,1′-biphenyl]-2-yl)oxy)-N-((6-(4-cyano-4-methylpiperidin-1-yl)pyridin-2-yl)sulfonyl)cyclopropane-1-carboxamide]",286%,0.75 µM
"O=C(NS(=O)(=O)c1cccc(N2CC[C@H](O)C2)n1)C1(Oc2cc(Cl)ccc2-c2ccc3ccoc3c2)CC1 [Example 5-4, (S)-1-(2-(Benzofuran-6-yl)-5-chlorophenoxy)-N-((6-(3-hydroxypyrrolidin-1-yl)pyridin-2-yl)sulfonyl)cyclopropane-1-carboxamide]",376%,2.06 µM
"O=C(NS(=O)(=O)c1cccc(N2CC[C@H](O)C2)n1)C1(Oc2cc(Cl)ccc2-c2cccc(OC(F)(F)F)c2)CC1 [Example 5-6, (S)-1-((4-Chloro-3′-(trifluoromethoxy)-[1,1′-biphenyl]-2-yl)oxy)-N-((6-(3-hydroxypyrrolidin-1-yl)pyridin-2-yl)sulfonyl)cyclopropane-1-carboxamide]",280%,1.77 µM
O=C(NS(=O)(=O)c1cccc(N2CC[C@H](O)C2)n1)C1(Oc2cc(Cl)ccc2-c2ccc(F)c(C(F)(F)F)c2)CC1 [Example 5-7],279%,1.38 µM
"O=C(NS(=O)(=O)c1cccc(N2CC[C@H](O)C2)n1)C1(Oc2cc(Cl)ccc2-c2ccc3occc3c2)CC1 [Example 5-12, (S)-1-(2-(Benzofuran-5-yl)-5-chlorophenoxy)-N-((6-(3-hydroxypyrrolidin-1-yl)pyridin-2-yl)sulfonyl)cyclopropane-1-carboxamide]",204%,2.47 µM
"Cc1ccc(-c2cc(C(F)(F)F)ccn2)c(OC2(C(=O)NS(=O)(=O)c3cccc(N4CC[C@H](O)C4)n3)CC2)c1 [Example 5-13, (S)—N-((6-(3-Hydroxypyrrolidin-1-yl)pyridin-2-yl)sulfonyl)-1-(5-methyl-2-(4-(trifluoromethyl)pyridin-2-yl)phenoxy)cyclopropane-1-carboxamide]",513%,2.08 µM
"O=C(NS(=O)(=O)c1cccc(N2CC[C@H](O)C2)n1)C1(Oc2cc(Cl)ccc2-c2ccc3c(c2)OC(F)(F)O3)CC1 [Example 5-15, (S)-1-(5-Chloro-2-(2,2-difluorobenzo[d][1,3]dioxol-5-yl)phenoxy)-N-((6-(3-hydroxypyrrolidin-1-yl)pyridin-2-yl)sulfonyl)cyclopropane-1-carboxamide]",361%,2.54 µM
"Cc1ccc(OC2CCCC2)c(OC2(C(=O)NS(=O)(=O)c3cccc(N4CCC(C)(C#N)CC4)n3)CC2)c1 [Example 6-2, N-((6-(4-cyano-4-methylpiperidin-1-yl)pyridin-2-yl)sulfonyl)-1-(2-(cyclopentyloxy)-5-methylphenoxy)cyclopropanecarboxamide]",289%,2.18 µM
"Cc1ccc(OC2CCCCC2)c(OC2(C(=O)NS(=O)(=O)c3cccc(N4CC[C@H](O)C4)n3)CC2)c1 [Example 6-3, (S)-1-(2-(Cyclohexyloxy)-5-methylphenoxy)-N-((6-(3-hydroxypyrrolidin-1-yl)pyridin-2-yl)sulfonyl)cyclopropane-1-carboxamide]",507%,2.78 µM
"Cc1ccc(OC2CCC(C(C)(C)C)CC2)c(OC2(C(=O)NS(=O)(=O)c3cccc(N4CC[C@H](O)C4)n3)CC2)c1 (stereo partly drawn) [Example 6-4, (S)-1-(2-((4-(tert-butyl)cyclohexyl)oxy)-5-methylphenoxy)-N-((6-(3-hydroxypyrrolidin-1-yl)pyridin-2-yl)sulfonyl)cyclopropanecarboxamide]",526%,0.33 µM
"Cc1ccc(OC2CCC(C(C)(C)C)CC2)c(OC2(C(=O)NS(=O)(=O)c3cccc(N4CCC(C)(O)CC4)n3)CC2)c1 (centres unmarked) [Example 6-5, 1-(2-((4-(tert-butyl)cyclohexyl)oxy)-5-methylphenoxy)-N-((6-(4-hydroxy-4-methylpiperidin-1-yl)pyridin-2-yl)sulfonyl)cyclopropanecarboxamide]",519%,0.37 µM
"Cc1ccc(OC2CCC(C(C)(C)C)CC2)c(OC2(C(=O)NS(=O)(=O)c3cccc(N4CCC(O)(C(F)(F)F)CC4)n3)CC2)c1 (centres unmarked) [Example 6-8, 1-(2-((4-(tert-butyl)cyclohexyl)oxy)-5-methylphenoxy)-N-((6-(4-hydroxy-4-(trifluoromethyl)piperidin-1-yl)pyridin-2-yl)sulfonyl)cyclopropanecarboxamide]",428%,0.21 µM
"Cc1ccc(OC2CCCC2)c(OC2(C(=O)NS(=O)(=O)c3cccc(N4CC[C@H](O)C4)n3)CC2)c1 [Example 6-13, (S)-1-(2-(cyclopentyloxy)-5-methylphenoxy)-N-((6-(3-hydroxypyrrolidin-1-yl)pyridin-2-yl)sulfonyl)cyclopropanecarboxamide]",285%,2.55 µM
"O=C(NS(=O)(=O)c1cccc(N2CC[C@H](O)C2)n1)C1(Oc2cc(Cl)ccc2OC2CCCC2)CC1 [Example 6-14, (S)-1-(5-chloro-2-(cyclopentyloxy)phenoxy)-N-((6-(3-hydroxypyrrolidin-1-yl)pyridin-2-yl)sulfonyl)cyclopropanecarboxamide]",276%,3.24 µM
"Cc1ccc(OCC(C)C)c(OC2(C(=O)NS(=O)(=O)c3cccc(N4CC[C@H](O)C4)n3)CC2)c1 [Example 6-15, (S)—N-((6-(3-hydroxypyrrolidin-1-yl)pyridin-2-yl)sulfonyl)-1-(2-isobutoxy-5-methylphenoxy)cyclopropanecarboxamide]",215%,2.94 µM
"CC(C)(C)C1(O)CCN(c2cccc(S(=O)(=O)NC(=O)C3(Oc4cc(Cl)ccc4C4CC5(CCC5)C4)CC3)n2)CC1 [Example 7-4, N-((6-(4-(tert-butyl)-4-hydroxypiperidin-1-yl)pyridin-2-yl)sulfonyl)-1-(5-chloro-2-(spiro[3.3]heptan-2-yl)phenoxy)cyclopropanecarboxamide]",840%,0.44 µM
"O=C(NS(=O)(=O)c1cccc(N2CC3(CCO3)C2)n1)C1(Oc2cc(Cl)ccc2C2CC3(CCC3)C2)CC1 [Example 7-5, N-((6-(1-oxa-6-azaspiro[3.3]heptan-6-yl)pyridin-2-yl)sulfonyl)-1-(5-chloro-2-(spiro[3.3]heptan-2-yl)phenoxy)cyclopropanecarboxamide]",493%,0.88 µM
"O=C(NS(=O)(=O)c1cccc(N2CCC3(CCCO3)CC2)n1)C1(Oc2cc(Cl)ccc2C2CC3(CCC3)C2)CC1 [Example 7-6, N-((6-(1-oxa-8-azaspiro[4.5]decan-8-yl)pyridin-2-yl)sulfonyl)-1-(5-chloro-2-(spiro[3.3]heptan-2-yl)phenoxy)cyclopropanecarboxamide]",408%,0.85 µM
